Assay results reported in patent EP1165534B1, “BENZOYLGUANIDINE DERIVATIVES WITH ADVANTAGEOUS PROPERTIES, METHOD FOR PRODUCING THEM AND THEIR USE IN THE PRODUCTION OF MEDICAMENTS” (Boehringer Ingelheim Pharma GmbH & Co.KG, priority 1998, dated 2000).
pIC50: −log10 of the molar value. Structures can show the parent of a compound that is named as a salt. Where two headings read alike, the source gives them in different places.

Legend:
[1] = target: T1, Na^+/H^+-Austauscher (Homo sapiens, UniProt P19634); assay: Inhibition of the Na+/H+ exchanger in human colon cancer cells (HT-29), BCECF fluorescence pH measurement; assay type: cell-based; settings: HT-29-Zellen; 4 min, 37°C, pH 7.0
T1 construct: HT-29-Zellen werden bei 37°C, 5% CO2 in Wachstumsmedium inkubiert; endogenous in cells; host or cells: HT-29 human colon cancer cells
Protocol: Inhibition des Na^+/H^+-Austauschers in humanen Darmkrebszellen (HT-29):
HT-29-Zellen werden bei 37°C, 5% CO2 in Wachstumsmedium inkubiert. Nach 3-5 Tagen wurde das Wachstumsmedium entfernt, die Zellen gewaschen und mit 7.5 µM BCECF-AM (pH-sensitiver Fluoreszenzfarbstoff) bei 37°C ohne CO2 beladen. Nach 30 min werden die Zellen gewaschen und mit folgendem Medium angesäuert: 70 mM Cholinchlorid, 20 mM NH4Cl, 1 mM MgCl2, 1.8 mM CaCl2, 5 mM Glucose und 15 mM HEPES, pH 7.5.
Nach 6 min Inkubation bei 37°C ohne CO2 werden die Zellen gewaschen und für 5 min mit Waschmedium inkubiert: 120 mM Cholinchlorid, 5 mM KCl, 1 mM MgCl2, 1.8 mM CaCl2, 5 mM Glucose und 15 mM MOPS, pH 7.0.
Das Waschmedium wird entfernt und Kontrollmedium mit oder ohne Testverbindung wird zugegeben: 120 mM NaCl, 5 mM KCl, 1 mM MgCl2, 1.8 mM CaCl2, 5 mM Glucose, 15 mM MOPS, pH 7.0.
Die Zellen werden 4 min bei 37°C ohne CO2 inkubiert und fluorimetrisch (CytoFluor 2350) vermessen. Die Fluoreszenz des Farbstoffes BCECF wird bei den Anregungswellenlängen 485 nm (pH-sensitiv) und 440 nm (nicht pH-sensitiv) und bei der Emissionswellenlänge 530 nm gemessen. Der cytoplasmatische pH wird aus dem Verhältnis der Fluoreszenzen bei 485 und 440 nm berechnet. Das Fluoreszenzverhältnis wird durch Messung des Fluoreszenzsignals nach Äquilibrierung von externem und internem pH mit Nigericin kalibriert.

[2] = Pharmacokinetics in male rats after i.v. and oral administration; assay type: in vivo, Ratten; settings: not fasted; for F: non-compartmental analysis (TopFit); for half-life: rat, plasma
Protocol: Pharmakokinetische Daten:
Für die Untersuchungen wurden männliche, ca. 200 g schwere Ratten (nicht nüchtern), verwendet. Zur intravenösen und oralen Applikation werden die Substanzen in einer angesäuerten wässerigen Lösung (pH 3) gelöst. Einzelne Bolus Injektionen (0.5 mg/kg i.v., 2.5 mg/kg p.o.) werden in die Schwanzvene injiziert (0.2 ml/200g) oder über eine Kanüle in den Magen gegeben (1 ml/200 g). Die Applikationslösungen werden analysiert, um die applizierte Dosis zu bestätigen. 0.5 ml Aliquots Blut werden vom retro-orbitalen Venenplexus unter kurzer Halothan-Betäubung mit heparinisierten Glass-Kapillaren nach folgendem Schema entnommen: • nach i.v. Applikation: 5 min, 15 min, 30 min, 1 h, 2 h, 4 h, 6 h, 8h; • nach oraler Applikation: 15 min, 1 h, 2 h, 4 h, 6 h, 8 h, 24 h, 32 h.
Die Proben werden zentrifugiert und das Plasma bis zur Analyse bei - 20°C gelagert. Die Proben-Vorbereitung erfolgt durch flüssig-flüssig Extraktion mit einem internen Standard. Die Plasmaextrakte werden mit Reversed Phase HPLC, gekoppelt mit einem Elektrospray-Tandem-Massenspektrometer analysiert. Die pharmakokinetischen Daten werden aus den entsprechenden PlasmaKonzentrationen durch Kompartiment-freie Analyse mit dem TopFit Programm bestimmt (Heinzel, G., Woloszczak, R., Thomann, P. TopFit 2.0 - Pharmacokinetic and pharmacodynamic data analysis, system for the PC, Gustav Fischer Verlag, Stuttgart, Jena, New York, 1993).

[3] = iv, 0.5 mg/kg i.v., read-out: t1/2 (i.v.) (converted)
[4] = po, 2.5 mg/kg p.o., read-out: t1/2 (p.o.) (converted)

T1 sequence (P19634 whole entry): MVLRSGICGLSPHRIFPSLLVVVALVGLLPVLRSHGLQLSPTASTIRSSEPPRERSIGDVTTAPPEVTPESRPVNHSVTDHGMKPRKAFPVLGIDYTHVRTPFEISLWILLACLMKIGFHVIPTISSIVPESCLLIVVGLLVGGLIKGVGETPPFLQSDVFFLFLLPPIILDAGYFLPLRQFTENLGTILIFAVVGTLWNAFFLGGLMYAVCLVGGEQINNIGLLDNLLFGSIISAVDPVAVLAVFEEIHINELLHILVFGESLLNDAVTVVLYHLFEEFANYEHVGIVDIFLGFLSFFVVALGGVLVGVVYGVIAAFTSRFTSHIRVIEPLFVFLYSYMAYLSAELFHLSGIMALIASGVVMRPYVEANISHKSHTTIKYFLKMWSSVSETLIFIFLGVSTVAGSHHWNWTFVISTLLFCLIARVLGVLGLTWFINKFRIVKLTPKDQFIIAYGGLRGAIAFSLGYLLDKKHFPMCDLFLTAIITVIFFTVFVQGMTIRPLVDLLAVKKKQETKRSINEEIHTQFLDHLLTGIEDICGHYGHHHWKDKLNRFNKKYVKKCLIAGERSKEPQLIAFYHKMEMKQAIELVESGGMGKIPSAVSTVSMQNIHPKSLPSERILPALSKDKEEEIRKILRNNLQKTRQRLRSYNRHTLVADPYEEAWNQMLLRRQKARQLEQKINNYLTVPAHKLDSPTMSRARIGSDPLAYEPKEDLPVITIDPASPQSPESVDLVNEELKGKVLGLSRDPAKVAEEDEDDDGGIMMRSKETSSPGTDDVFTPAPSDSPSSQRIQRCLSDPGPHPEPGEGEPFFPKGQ

Row | Compound | pIC50 [1] | F ([2]; 0.5 mg/kg i.v., 2.5 mg/kg p.o.) | half-life [2, 3] [h] | half-life [2, 4] [h]
1 | COc1cccc(C(=O)N2CCN(c3ccc(C(=O)NC(=N)N)cc3C(F)(F)F)CC2)c1 [Beispiel 1, 4-(4-(3-Methoxyphenylcarbonyl)-1-piperazinyl)-3-trifluormethylbenzoylguanidin-hydrochlorid] | 7.12 | – | – | –
2 | N=C(N)NC(=O)c1ccc(N2CCN(C(=O)c3ccc[nH]3)CC2)c(C(F)(F)F)c1 [Beispiel 2, 4-(4-(2-Pyrrolylcarbonyl)-1-piperazinyl)-3-trifluormethylbenzoylguanidin-methansulfonat] | – | 63 | 1.3 | 5
3 | N=C(N)NC(=O)c1ccc(N2CCN(C(=O)c3ccc(F)cc3)CC2)c(C(F)(F)F)c1 [Beispiel 3, 4-(4-(4-Fluorphenylcarbonyl)-1-piperazinyl)-3-trifluormethylbenzoylguanidin-methansulfonat] | 7.42 | 71 | 3.1 | 5.4
4 | COc1ccccc1C(=O)N1CCN(c2ccc(C(=O)NC(=N)N)cc2C(F)(F)F)CC1 [Beispiel 4, 4-(4-(2-Methoxyphenylcarbonyl)-1-piperazinyl)-3-trifluormethylbenzoylguanidin-hydrochlorid] | 7.08 | – | – | –
5 | N=C(N)NC(=O)c1ccc(N2CCN(C(=O)c3cccc(C(F)(F)F)c3)CC2)c(C(F)(F)F)c1 [Beispiel 5, 4-(4-(3-Trifluormethylphenylcarbonyl)-1-piperazinyl)-3-trifluormethylbenzoylguanidin-hydrochlorid] | 7.64 | 58 | 5.4 | 7.5

Continued, in another order:

Row | pIC50 [1] | Compound | F ([2]; 0.5 mg/kg i.v., 2.5 mg/kg p.o.) | half-life [2, 3] [h] | half-life [2, 4] [h]
6 | 7.08 | N=C(N)NC(=O)c1ccc(N2CCN(C(=O)c3ccco3)CC2)c(C(F)(F)F)c1 [Beispiel 7, 4-(4-(2-Furylcarbonyl)-1-piperazinyl)-3-trifluormethyl-benzoylguanidinmethansulfonat] | – | – | –
7 | 7.21 | Cc1cccc(C(=O)N2CCN(c3ccc(C(=O)NC(=N)N)cc3C(F)(F)F)CC2)c1 [Beispiel 8, 4-(4-(3-Methylphenylcarbonyl)-1-piperazinyl)-3-trifluormethylbenzoylguanidin-methansulfonat] | – | – | –
8 | 7.10 | N=C(N)NC(=O)c1ccc(N2CCN(C(=O)c3ccccn3)CC2)c(C(F)(F)F)c1 [Beispiel 10, 4-(4-(2-Pyridylcarbonyl)-1-piperazinyl)-3-trifluormethyl-benzoylguanidindimethansulfonat] | – | – | –
